Tests used:
[1] = test system: giant foxtail; assay: Test A preemergence; format: in vivo, Setaria faberii
Summary of the method: (§1)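 Injury scores run from 0, no effect, to 100, complete control, judged by eye against untreated plants roughly 10 days after treatment. Chemicals carried a surfactant in a non-phytotoxic solvent and went onto loam–sand soil preemergence or onto one- to two-leaf seedlings postemergence.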

[2] = test system: morningglory; assay: Test A preemergence; format: in vivo, Ipomoea spp.
Summary of the method: as §1

[3] = test system: velvetleaf; assay: Test A preemergence; format: in vivo, Abutilon theophrasti; settings: 125 g ai/ha, 0 to 100 scale where 0 is no effect and 100 is complete control
Summary of the method: as §1

[4] = test system: corn; assay: Test A preemergence; format: in vivo, Zea mays
Summary of the method: as §1

[5] = test system: large (Lg) crabgrass; assay: Test A postemergence; format: in vivo, Digitaria sanguinalis; settings: 0 to 100 scale where 0 is no effect and 100 is complete control
Summary of the method: as §1

[6] = test system: pigweed; assay: Test A postemergence; format: in vivo, Amaranthus retroflexus; settings: 0 to 100 scale where 0 is no effect and 100 is complete control
Summary of the method: as §1

[7] = test system: velvetleaf; assay: Test A postemergence; format: in vivo, Abutilon theophrasti; settings: 0 to 100 scale where 0 is no effect and 100 is complete control
Summary of the method: as §1

[8] = test system: wheat; assay: Test A postemergence; format: in vivo, Triticum aestivum; settings: 0 to 100 scale where 0 is no effect and 100 is complete control
Summary of the method: as §1

[9] = test system: barnyardgrass; assay: Test B flooded paddy test; format: in vivo, Echinochloa crus-galli; settings: Flood, 250 g ai/ha; 0 to 100 scale where 0 is no effect and 100 is complete control
Summary of the method: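 Post-emergence paddy-water application at the 2-leaf stage, with 3 cm flood kept for the whole test. Response was judged visually relative to controls after 13 to 15 greenhouse days, 0 indicating no effect and 100 complete control.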

[10] = test system: wheat, winter; assay: Test C preemergence; format: in vivo, Triticum aestivum; settings: for Wheat plant response rating: preemergence
Summary of the method: (§2)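 Rated visually on 0–100 (100 = complete control) after 13–15 days under glass. Treatments went onto freshly seeded loam/sand soil or onto emerged plants at the 1- to 4-leaf stage, using a surfactant-containing solvent formulation.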

[11] = test system: lambsquarters; assay: Test C preemergence; format: in vivo, Chenopodium album; settings: for Lambsquarters plant response rating: preemergence
Summary of the method: as §2

[12] = test system: barnyardgrass; assay: Test C preemergence; format: in vivo, Echinochloa crus-galli; settings: for Barnyardgrass plant response rating: preemergence
Summary of the method: as §2

[13] = test system: Italian ryegrass; assay: Test C postemergence; format: in vivo, Lolium multiflorum; settings: for Plant response rating, Ryegrass, Italian: Postemergence, scale 0 to 100 (0 no effect, 100 complete control)
Summary of the method: as §2

[14] = test system: morningglory; assay: Test C postemergence; format: in vivo, Ipomoea coccinea; settings: for Plant response rating, Morningglory: Postemergence, scale 0 to 100 (0 no effect, 100 complete control)
Summary of the method: as §2

[15] = test system: pigweed; assay: Test C postemergence; format: in vivo, Amaranthus retroflexus; settings: for Plant response rating, Pigweed: Postemergence, scale 0 to 100 (0 no effect, 100 complete control)
Summary of the method: as §2

[16] = test system: kochia; assay: Test C postemergence; format: in vivo, Kochia scoparia; settings: for Plant response rating, Kochia: Postemergence
Summary of the method: as §2

[17] = 125 g ai/ha, 0 to 100 scale where 0 is no effect and 100 is complete control
[18] = 500 g ai/ha, 0 to 100 scale, 0 no effect, 100 complete control, approx. 10 days
[19] = 16 g ai/ha, scale 0 to 100 (0 no effect, 100 complete control)
[20] = 62 g ai/ha, scale 0 (no effect) to 100 (complete control)
[21] = 125 g ai/ha, scale 0 (no effect) to 100 (complete control)
[22] = Preemergence, 31 g ai/ha, scale 0 to 100, 0 no effect, 100 complete control

CCOc1cnn(-c2c(C#N)cccc2Oc2ncc(Cl)cn2)c1 [Compound 92]
Plant response rating, Foxtail, Giant [1, 17]: 100 | Foxtail, Giant plant response rating [1, 18]: 100 | Plant response rating, Morningglory [2, 17]: 90 | Morningglory plant response rating [2, 18]: 100 | Plant response rating, Velvetleaf [3]: 100 | Plant response rating, Corn [4, 17]: 10 | Corn plant response rating [4, 18]: 40 | Plant response rating, Crabgrass, Large ([5]; 125 g ai/ha): 80 | Plant response rating, Crabgrass, Large ([5]; 500 g ai/ha): 90 | Plant response rating, Pigweed ([6]; 125 g ai/ha): 100 | Plant response rating, Pigweed ([6]; 500 g ai/ha): 100 | Plant response rating, Velvetleaf ([7]; 125 g ai/ha): 100 | Plant response rating, Velvetleaf ([7]; 500 g ai/ha): 100 | Plant response rating, Wheat ([8]; 125 g ai/ha): 60 | Plant response rating, Wheat ([8]; 500 g ai/ha): 70 | Plant response rating, Barnyardgrass [9]: 20 | Wheat plant response rating [10, 19]: 0 | Wheat plant response rating [10, 20]: 30 | Wheat plant response rating [10, 21]: 80 | Plant response rating, Wheat [10, 22]: 0 | Lambsquarters plant response rating [11, 19]: 65 | Lambsquarters plant response rating [11, 20]: 100 | Lambsquarters plant response rating [11, 21]: 98 | Plant response rating, Lambsquarters [11, 22]: 98 | Barnyardgrass plant response rating [12, 19]: 5 | Barnyardgrass plant response rating [12, 20]: 100 | Barnyardgrass plant response rating [12, 21]: 100 | Plant response rating, Barnyardgrass [12, 22]: 75 | Plant response rating (0 to 100), Ryegrass, Italian ([13]; 125 g ai/ha, postemergence): 35 | Plant response rating, Ryegrass, Italian ([13]; 31 g ai/ha, 13 to 15 days): 5 | Plant response rating, Ryegrass, Italian ([13]; 62 g ai/ha): 5 | Plant response rating (0 to 100), Morningglory ([14]; 125 g ai/ha, postemergence): 85 | Plant response rating, Morningglory ([14]; 31 g ai/ha, 13 to 15 days): 85 | Plant response rating, Morningglory ([14]; 62 g ai/ha): 90 | Plant response rating (0 to 100), Pigweed ([15]; 125 g ai/ha, postemergence): 75 | Plant response rating, Pigweed ([15]; 31 g ai/ha, 13 to 15 days): 60 | Plant response rating, Pigweed ([15]; 62 g ai/ha): 55 | Kochia plant response rating ([16]; 16 g ai/ha, postemergence, visual rating, scale 0 to 100 (0 no effect, 100 complete control), 13 to 15 days): 40 | Plant response rating (0 to 100), Kochia ([16]; 125 g ai/ha, postemergence): 85 | Plant response rating, Kochia ([16]; 31 g ai/ha, scale 0 to 100 (0 no effect, 100 complete control), 13 to 15 days): 60 | Plant response rating, Kochia ([16]; 62 g ai/ha, scale 0 to 100 (0 no effect, 100 complete control)): 80

Source: patent US9695155B2, “Herbicidal substituted pyrimidinyloxy benzene compounds” (E. I. DU PONT DE NEMOURS AND COMPANY, priority 2013, dated 2017)
